Experimental data reported in patent US12616667B2, “Compositions and methods for improving neurological diseases and disorders” (CURASEN THERAPEUTICS, INC., priority 2021, dated 2026).
“Also recorded” adds a separate entry of the source.

How the values were obtained:
healthy subjects [1] = test: Heart rate by triplicate ECG after Compound 03-5 with or without nadolol; format: in vivo, human; details: 6 mg Compound 03-5 with pre-administration of 1 mg nadolol
Protocol: FIGS. 11A-11B show the effects of Compound 03-5 monotherapy (6 mg) on heart rate (FIG. 11A) and administered 2 hours after nadolol (1-40 mg) (FIG. 11B). Heart rate was measured by triplicate ECG recordings. Data are presented as means changes from time-matched measures recorded on the day before the first dose of study drug (Day −1).
Healthy volunteers were be enrolled into 2 cohorts in a study to undertake within-subject dose titration of Compound 03-5 and/or nadolol in order to explore doses/dose combinations that mitigate peripheral effects of Compound 03-5, e.g. on heart rate, while preserving possible central effects of Compound 03-5 on cerebral perfusion and pupillary light reflex.
Cohort D1 enrolled 8 healthy subjects and undertook an evaluation of the effects of treatment on ECG following repeat dosing of Compound 03-5 in the presence of escalating doses of nadolol according to following schematic.
Eight healthy subjects aged 18-50 years were enrolled into Cohort D1 and received escalating doses of Compound 03-5 (3-12 mg) administered once daily 2 hours follow pre-administration of nadolol (1-40 mg). On all dosing days, study drug(s) were administered orally after an overnight fast of at least 8 hours. […]

healthy subjects [2] = test: Peripheral effects of Compound 03-5 (glucose, potassium, tachycardia, tremor, palpitations) with nadolol; format: in vivo, human
Protocol: Data are presented as individual observations for all available subjects.
Eight healthy subjects aged 18-50 years were enrolled into Cohort D1 and received escalating doses of Compound 03-5 (3-12 mg) administered once daily 2 hours follow pre-administration of nadolol (1-40 mg). On all dosing days, study drug(s) were administered orally after an overnight fast of at least 8 hours.
Routine measures of ECG, vital signs, safety labs, physical exams and plasma sample collections for analysis of drug pharmacokinetics (PK) were undertaken according to the Schedule of Events (Table 1).
(§1) In Cohort D2, 8 healthy volunteers aged 55-75 years were admitted on Day −1 for a 5-day confinement period at the research facility. During this confinement, subjects received escalating doses of open label Compound 03-5 (1-10 mg) once-daily from Day 1 through Day 3 2 hours after pre-administration of open-label nadolol (3 mg) one each for the 3 dosing days according to the following schematic. Subjects remained in-residency until all study procedures are completed on Day 4.

[3] = system: healthy volunteers aged 55-75 years; test: CANTAB cognition battery, Cohort D2; format: in vivo, human; details: Compound 03-5 1, 3, 10 mg on Days 1-3, 2 hours after nadolol 3 mg
Protocol: CANTAB data from healthy adults 55-75 years of age (N=4) who received once-daily 3 mg nadolol and Compound 03-5 (1, 3, and 10 mg) on Day1, Day 2 and Day 3. […] Data are presented as mean changes from the within-day pre-dose assessment.
as §1
? Compound 03-5 dose administration. Compound 03-5 was administered as escalating doses on Day 1 (1 mg), Day 2 (3 mg) and Day 3 (10 mg). CANTAB was conducted twice in all subjects on the day prior to start of dosing (Day −1) to familiarize subjects with the platform, and prior to dosing and approximately 3 hours after Compound 03-5 administration on Days 1, 2, and 3.

Ts65Dn mice = details: increasing brain NE levels; cited from earlier work
patients = test: Cerebral blood flow relative to baseline after a single dose (Example 1); format: in vivo, human
healthy subjects [4] = test: ASL MRI cerebral perfusion before and after a single dose (Example 3); format: in vivo, human
Protocol: In a clinical study, healthy subjects were administered doses of clenbuterol ranging from 20 to 160 μg and ASL MRI was conducted prior to and after dosing with an objective to ascertain whether this neuroimaging method enables the detection of a clinically relevant CNS signal.
In a region of interest (ROI) analysis focusing on the hippocampus, which is well understood to be affected in neurodegenerative disorders, a single dose of 80 μg of clenbuterol causes a robust increase in perfusion (see FIG. 7). […] Taken together with other cohorts in which ASL MRI was conducted, a clear dose response relationship is seen between dose of clenbuterol and cerebral perfusion (FIG. 8). […] Our hypothesis is that by improving cerebral perfusion, particularly in areas of the brain that are relevant for symptoms that are commonly found in neurodegenerative diseases such as PD and AD, the administration of a β-AR agonist (such as a β-agent) will have a positive effect on clinically relevant symptoms such as memory and cognition.

healthy subjects [5] = test: Adaptive tracking test (visuomotor coordination and vigilance); format: in vivo, human; details: single dose 160 μg clenbuterol
Excerpt: Adaptive tracking measures visuomotor coordination and vigilance. In this test, the subject uses a joystick to move a small dot so that it stays within a continuously moving circle on a computer screen (Boland 1984). During the test, the speed of the circle is adjusted in response to the subject's ability to keep the dot in the circle, ensuring that the test is adapted to the individual subject. […] The improvement shown by subjects is in the same range as that seen with subjects treated with the acetylcholinesterase inhibitor donepezil, which is in clinical use for the treatment of mild to moderate AD (Groeneveld 2016).

subjects = test: Visual verbal learning test (VVLT); format: in vivo, human; details: for effect on VVLT performance: crossover study, 3 agents plus placebo
Protocol: Subjects are presented 30 words on a screen, one at a time, for 1 second with a 1-second interval between words over a total of 1 minute. This is repeated in 3 trials. After each trial, subjects are asked to recall as many words as they can. After the third trial, there is a delay of 2.5 hours and subjects are then tested once for delayed recall. […] Since this was a crossover study, everyone who completed Part A was dosed with the 3 agents plus placebo.

[6] = doses of 80 and 160 μg clenbuterol

In the case of `CC(C)(C)NC[C@H](O)c1cccc(C#N)n1` [Compound 03-5, (S)-6-(2-(tert-butylamino)-1-hydroxyethyl)picolinonitrile], the “mean maximum increase in heart rate” value (healthy subjects [1]) is reported as 7 beats per minute, the “hypokalemia (blood potassium levels)” value (healthy subjects [2]; Compound 03-5 monotherapy 0.3 mg-6 mg, Cohorts A1-A5) is reported as “Dose-dependent increases in hypokalemia” and the “performance in the CANTAB cognition battery” value [3] is reported as “improvements in cognition; also recorded: improvements in performance”.
In the case of `N[C@H](C(=O)O)[C@H](O)c1ccc(O)c(O)c1` [L-DOPS, L-threo-3,4-dihydroxyphenylserine], the contextual learning (Ts65Dn mice) is listed as “restored contextual learning”.
With `CC(C)(C)NCC(O)c1cc(Cl)c(N)c(Cl)c1` (stereo not shown) [clenbuterol] the “cerebral blood flow (CBF) relative to baseline” value (patients; single dose clenbuterol 160 μg) was “robust global increase; also recorded: positive increase”, the “cerebral blood flow (CBF) relative to baseline” value (patients; single dose clenbuterol 160 μg and nadolol 5 mg) was “robust global increase” and the “cerebral blood flow (CBF) relative to baseline” value (patients; single dose clenbuterol ranging from 30 to 160 μg, tracked over 3 days) was “robust global increase”. The “cerebral perfusion increase as measured by CBF” value (healthy subjects [4]; clenbuterol dose of 40 μg) was “minimal increase”, the “cerebral perfusion increase as measured by CBF” value (healthy subjects [4]; clenbuterol doses below 30 μg) was “do not produce significant cerebral perfusion increases” and the “improvements in perfusion in brain areas relevant to neuropathology of neurodegenerative disorders” value (healthy subjects [4]; [6]) was about 25%. For the same compound, the “increases in cerebral perfusion in hippocampus and thalamus” value (healthy subjects [4]; [6]) was 20% to 25, the “increase in hippocampal perfusion, average” value (healthy subjects [4]; single dose 80 μg clenbuterol, 6 healthy subjects aged 44-52, hippocampus ROI) was 25% and the “cerebral perfusion, change from baseline” value (healthy subjects [4]; single dose 160 μg clenbuterol, global, in particular hippocampus, thalamus, cortex) was “global increase in cerebral perfusion; also recorded: robust global increase”. The “performance in adaptive tracking (percent time dot kept within moving circle)” value (healthy subjects [5]) was “improved adaptive tracking; also recorded: improves”, the “cognition as measured by adaptive tracking and word recall” value (healthy subjects [5]; healthy subjects, preliminary data) was “improves cognition” and the “effect on VVLT performance” value (subjects) was “positive effects”. For the same compound, the “effect on VVLT performance” value (subjects; listed as Clenbuterol) was “improved performance” and the “VVLT improvement in correctly recalled words” value (subjects; immediate recall (Trial 1) and delayed recall, crossover study vs placebo) was 1.5 to 2 correctly recalled words.
With `CC(C)(C)NCC(O)COc1cccc2c1CC(O)C(O)C2` (stereo not shown) [nadolol] the “peripheral effects of Compound 03-5 on heart rate, glucose, potassium, tachycardia, tremor and palpitations” value (healthy subjects [2]; Cohort D1, pre-administered nadolol 1 mg up to 40 mg, Compound 03-5 3-12 mg) was “blocked the peripheral effects”, the “effects of Compound 03-5 to increase heart rate and other peripheral effects including hyper glycemia and hypokalemia” value (healthy subjects [2]; Cohort D1, pre-administration of 1 mg nadolol, Compound 03-5 orally up to 6 mg) was “substantially attenuated” and the “peripheral effects of Compound 03-5 on heart rate, etc.” value (healthy subjects [2]; Cohort D2, pre-administered nadolol 3 mg, Compound 03-5 1-10 mg) was “similarly blocked the peripheral effects”. For the same compound, the “effects of Compound 03-5 on blood glucose and potassium, tachycardia, tremor and palpitations” value (healthy subjects [2]; pre-administration of 1 mg nadolol) was “Concomitant attenuation” and the “hypokalemia caused by Compound 03-5 (blood potassium levels)” value (healthy subjects [2]; subjects dosed with nadolol 1-40 mg, Cohorts D1 and D2) was “attenuation of hypokalemia”.
For `CC(C)NCC(O)COc1cccc2[nH]ccc12` (stereo not shown) [pindolol], the “effect on VVLT performance” value (subjects) was “detrimental effect”.
With `CC(C)(C)NCC(O)c1ccc(O)c(CO)c1` (stereo not shown) [salbutamol] the “effect on VVLT performance” value (subjects) was “positive effects”.
